Measured values: patent US20220098237A1, “COMPOUND, SYNTHESIS INTERMEDIATE, USE, PHARMACEUTICAL COMPOSITION AND NEUROMODULATORY THERAPEUTIC METHOD” (Remer Consultores Assessoria Empresarial Ltda, priority 2017, published 2022)
“And” between values parts separate entries of the source, which are not always exact repeats. Identical values can stand only once. “Also recorded” adds a separate entry of the source. Ends that are not written are not given here.

Columns and labels:
[1] = Stability tests under extreme conditions (freezing 24 hours; heating at 100° C. for 10 minutes), HPLC; assay type: physicochemical
Description: In the vertical axis the area of the HPLC peak is shown. […] Statistical significance data are also shown, the asterisks indicating: (*) P<0.05 vs Control (***) P<0.005 vs Control; (****) P<0.0001 vs Control.

CB1 receptor = test: Screening with anti-CB1 antibodies sensitive to activation/conformational changes, ELISA on Striatum membranes; assay type: binding; conditions: ligands 1 μM, Assay 1-5
Protocol: Antibodies sensitive to CB1 receptor activation were generated and characterized by their specificities. For screening compounds, Striatum membranes (5 μg per well) were plated on NUNC-Immuno 96-well plates (Nalge-Nunc) and dried at room temperature. Membranes were washed with PBS (phosphate buffered saline) and incubated with or without different ligands (1 μM) and the extent of receptor recognition by the antibodies was measured by ELISA. The results of the tests are shown in Table 5, which indicates the % binding to the CB1 receptor in relation to control: […]

[2] = target: CB1 receptor in Striatum membranes; test: ELISA on Striatum membranes: CB1 recognition by conformation-sensitive anti-CB1 antibody after incubation with 1 µM ligand; assay 3
[3] = target: CB1 receptor in Striatum membranes; test: ELISA on Striatum membranes: CB1 recognition by conformation-sensitive anti-CB1 antibody after incubation with 1 µM ligand; assay 1
[4] = target: CB1 receptor in Striatum membranes; test: ELISA on Striatum membranes: CB1 recognition by conformation-sensitive anti-CB1 antibody after incubation with 1 µM ligand; assay 4
[5] = target: CB1 receptor in Striatum membranes; test: ELISA on Striatum membranes: CB1 recognition by conformation-sensitive anti-CB1 antibody after incubation with 1 µM ligand; assay 2
[6] = target: CB1 receptor in Striatum membranes; test: ELISA on Striatum membranes: CB1 recognition by conformation-sensitive anti-CB1 antibody after incubation with 1 µM ligand; assay 5
pilocarpine model = test: Pilocarpine model, oral pre-treatment (salivation, first signal, seizure, death/survival); assay type: in vivo, Mus musculus; parameters: time of occurrence of the first seizure: unit not given here; conditions: for time of occurrence of the first salivation: Table 1; for time of occurrence of the first salivation / time of occurrence of the first signal / time of occurrence of the first seizure / time of death occurrence: oral, 10 minutes prior to pilocarpine 320 mg/kg i.p., individual animals; for time of occurrence of the first signal: Table 2; for time of occurrence of the first seizure: Table 3; for time of death occurrence: Table 4; for neuroprotection, survival/death profile after 24 hours: FIG. 7, 600 μg/kg, n=5 per group, compared with SEQ ID No. 1
Protocol: In some examples, the neuromodulatory/neuroprotective/anticonvulsive effects of the composition of the invention have been evaluated in vivo by oral administration to animals. The pharmaceutical composition of the invention was administered to mammals (Mus musculus or mouse) with an oral dose of treatment with different embodiments of the compound of the invention, compared to other compounds or to saline control. In these experiments, the test compounds were administered orally 10 minutes prior to (intraperitoneal) administration of pilocarpine. Pilocarpine hydrochloride (320 mg/kg, Merck), dissolved in 0.9% sterile saline, was given intraperitoneally for induction of SE (status epileticus) (Turski et al., 1983). In the Turski model, the neurotoxic effects begin about 15-25 minutes after the injection of Pilo, with the occurrence of motor and limbic seizures, the animals evolving to a state of continuous (clonic) seizures that characterize SE Sanabria and Cavalheiro, 2000).
In this embodiment, the anticonvulsive effect of the composition of the invention prepared according to Example 2 was evaluated by prior administration of the inventive composition and subsequent administration of pilocarpine to animals. FIG. 4 presents the results of the pilocarpine model, indicating the time for the first salivation with the administration of control, cannabidiol (30 mg/kg), the compound of the invention R1-N-AA1-K-AA2-R2, in which embodiment is the tetrapeptide of SEQ ID No. 1 (500 μg/kg).
In this embodiment, the neuromodulatory effect of the composition of the invention prepared according to Example 2 was evaluated by prior administration of the inventive composition and subsequent administration of pilocarpine to animals. Other test compounds were also evaluated as described below. Administration of pilocarpine leads to severe brain injury, neurotoxicity and usually culminates in the death of the animals. This substance was used in the experiments described below but its harmful neuronal/encephalic effects were inhibited by the prior administration of the composition of the present invention: the vast majority of the animals subjected to these experiments had no symptoms related to brain lesions and survived without apparent damage, in contrast to groups of animals treated with other known substances.
The composition of the invention was prepared according to Example 2 with due concentration correction, for comparison of the effects of SEQ ID No. 1, SEQ ID No. 7 and NFK, such compounds having been previously administered to the animal groups.
In this embodiment, the anticonvulsant effect of different embodiments of the compound of the invention with the structure represented by SEQ ID No. 1, SEQ ID No. 7, NFK, FKF, FKL, as well as the NF, FK, KF and KL dipeptides were evaluated in the pilocarpine model.

pain threshold = test: Pain threshold model, pressure apparatus on right paw; assay type: in vivo, rats; conditions: oral, 0.5 to 0.25 mg/kg, individual animals
Protocol: The compounds of the present invention have also been tested as analgesics or neuropathic pain modulators. To that end, the compounds PVNFKF, PVNFK, VNFKF, SEQ ID No. 1 were tested in the pain threshold model. The pain threshold was measured using a pressure apparatus (Ugo Basile, Italy), essentially as described (Randall and Selitto, 1957). Briefly, a force of increasing magnitude (16 g/s) was applied to the back of the right paw of rats. When animals react by kicking, the force in grams required to induce this response is the threshold of pain. Antinoniceptive activity was expressed as the increase in pain threshold compared to control animals.
The compounds of the invention were administered orally to the animals at doses of 0.5 to 0.25 mg/kg and saline was used as a control.

[7] = heating at 100° C. for 10 minutes

CB1 receptor in Striatum membranes, sequence (P21554 whole entry): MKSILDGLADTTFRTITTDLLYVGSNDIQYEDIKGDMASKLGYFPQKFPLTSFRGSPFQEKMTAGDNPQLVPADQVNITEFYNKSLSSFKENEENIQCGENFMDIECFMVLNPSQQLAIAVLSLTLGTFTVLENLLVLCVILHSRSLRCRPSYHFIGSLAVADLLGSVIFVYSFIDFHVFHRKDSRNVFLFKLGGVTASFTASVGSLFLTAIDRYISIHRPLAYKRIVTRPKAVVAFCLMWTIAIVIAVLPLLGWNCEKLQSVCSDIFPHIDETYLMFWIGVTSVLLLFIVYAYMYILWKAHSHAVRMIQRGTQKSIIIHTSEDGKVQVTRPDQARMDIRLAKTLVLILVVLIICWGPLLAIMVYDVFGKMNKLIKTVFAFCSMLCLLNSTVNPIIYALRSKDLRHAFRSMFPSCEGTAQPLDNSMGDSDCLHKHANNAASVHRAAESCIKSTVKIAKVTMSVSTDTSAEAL

## CC(C)C[C@H](NC(=O)[C@H](Cc1ccccc1)NC(=O)[C@H](CCCCN)NC(=O)[C@H](Cc1ccccc1)NC(=O)[C@H](CC(N)=O)NC(=O)[C@@H](NC(=O)[C@@H]1CCCN1)C(C)C)C(=O)N[C@@H](CO)C(=O)N[C@@H](Cc1cnc[nH]1)C(=O)O [Hp, hemopressin]
[1]; control sample, n=2
  area of the HPLC peak, control: 140
[1]; freezing for 24 h
  area of the HPLC peak after freezing: 97
  part lost or degraded by freezing: approximately 31%
[1]; [7]
  area of the HPLC peak after heating: 50
  part lost or degraded upon heating: approximately 64.3%
CB1 receptor
  % binding to the CB1 receptor in relation to control: 91.33% and 92.74% and 97.05% and 90.23% and 73.49%

## RVDHp (peptide)
[2]
  % binding to the CB1 receptor in relation to control: 111 % of control
[3]
  % binding to the CB1 receptor in relation to control: 103 % of control
[4]
  % binding to the CB1 receptor in relation to control: 115 % of control
[5]
  % binding to the CB1 receptor in relation to control: 112 % of control
[6]
  % binding to the CB1 receptor in relation to control: 105 % of control

## VDHp (peptide)
[2]
  % binding to the CB1 receptor in relation to control: 131 % of control
[3]
  % binding to the CB1 receptor in relation to control: 116 % of control
[4]
  % binding to the CB1 receptor in relation to control: 129 % of control
[5]
  % binding to the CB1 receptor in relation to control: 114 % of control
[6]
  % binding to the CB1 receptor in relation to control: 113 % of control

## FKF
Pilocarpine model
  time of occurrence of the first salivation: 0.38 min and 0.95 min and 0.50 min and 1.50 min
  time of occurrence of the first signal: 5.3 min and 6.35 min and 8.33 min and 8.82 min
  time of occurrence of the first seizure: 10.25 and 6.28 and 8.92 and 3.83 and 7.82
  time of death occurrence: 12.9 min and 13.17 min and 20.67 min and 16.67 min and 13.5 min

## C=C(C)[C@@H]1CCC(C)=C[C@H]1c1c(O)cc(CCCCC)cc1O [cannabidiol, reference compound]
Pilocarpine model; FIG. 4, cannabidiol 30 mg/kg, SEQ ID No. 1 500 μg/kg
  time for first salivation vs control (significance): does not present statistical significance
Pilocarpine model; SEQ ID No. 1 500 μg/kg, cannabidiol 30 mg/kg
  prostration and nasal bleeding: both prostration and the nasal bleeding was observed; also recorded: both prostration and bleeding were observed

## VNFKF
Pain threshold; After 3 h
  pain threshold, force: 85 grams and 40 grams and 35 grams and 50 grams (3×)
Pain threshold; Immediate
  pain threshold, force: 70 grams (2×) and 65 grams (2×) and 75 grams (2×)

## PVNFK [reference compound]
Pain threshold; After 3 h
  pain threshold, force: 55 grams (2×) and 45 grams and 40 grams (2×) and 60 grams
Pain threshold; Immediate
  pain threshold, force: 70 grams and 75 grams (3×) and 65 grams and 60 grams

## SEQ ID No. 7: tetrapeptide of SEQ ID No. 7, embodiment of R1-N-AA1-K-AA2-R2; sequence not printed in the text (NFKL; Synthesized in laboratory)
Pilocarpine model
  neuroprotection, survival/death profile after 24 hours: even better than those obtained with SEQ ID No. 1
  time of occurrence of the first salivation: 1.25 min (2×) and 1.183 min and 1.067 min and 2.45 min
  time of occurrence of the first signal: 10.25 min and 9.317 min and 10.17 min (2×) and 3.83 min
  time of occurrence of the first seizure: 15.33 (2×) and 18.4 and 30 and 27.3
  time of death occurrence: 26.63 min and 25.13 min and 13.5 min

## FKL
Pilocarpine model
  time of occurrence of the first salivation: 0.333 min and 1.6 min and 0.2 min and 0.633 min and 1.5 min
  time of occurrence of the first signal: 9.17 min and 5.67 min and 9.5 min and 8.5 min and 4.5 min
  time of occurrence of the first seizure: 5.3 and 6.35 and 4.83 and 8.82
  time of death occurrence: 14.53 min and 11.7 min and 10.92 min

## Cc1c(C(=O)c2cccc3ccccc23)c2cccc3c2n1[C@H](CN1CCOCC1)CO3 [WIN 55212-2]
CB1 receptor; listed as Win
  % binding to the CB1 receptor in relation to control: 111.483% and 117.95% and 125.56% and 127.52% and 122.49%

## PVNFKF [reference compound]
Pain threshold; After 3 h
  pain threshold, force: 45 grams (2×) and 30 grams and 55 grams (2×) and 65 grams
Pain threshold; Immediate
  pain threshold, force: 75 grams (2×) and 65 grams and 60 grams and 70 grams and 80 grams

## RVDHp: N-extended version of hemopressin, RVD-Hp (pepcan 12) (RVDPVNFKLLSH; Hemoglobin subunit alpha; UniProt P69905 93-104, looked up, fragment)
CB1 receptor
  % binding to the CB1 receptor in relation to control: 103.39% and 111.53% and 110.87% and 114.76% and 105.22%

## NFK
Pilocarpine model
  neuroprotection, survival/death profile after 24 hours: equivalent to those obtained with SEQ ID No. 1
  time of occurrence of the first salivation: 1.38 min and 0.75 min and 0.42 min and 0.98 min
  time of occurrence of the first signal: 6.28 min and 8.92 min and 4.83 min and 7.82 min
  time of occurrence of the first seizure: 13.38 and 11.33 and 9.67 and 8 and 9.93
  time of death occurrence: 16.83 min and 13.53 min and 11.7 min and 10.92 min and 10.87 min
Pilocarpine model; FIG. 8
  occurrence of first salivation (in words): inhibited or delayed the occurrence of first salivation

## NFKF (also: biotin, position not given here) [SEQ ID No. 1-Biotin]
[2]
  % binding to the CB1 receptor in relation to control: 83.3 % of control
[3]
  % binding to the CB1 receptor in relation to control: 89.2 % of control
[4]
  % binding to the CB1 receptor in relation to control: 84.8 % of control
[5]
  % binding to the CB1 receptor in relation to control: 85.5 % of control
[6]
  % binding to the CB1 receptor in relation to control: 97.5 % of control

## PVNFKFLSH [hemopressin]
[2]
  % binding to the CB1 receptor in relation to control: 97 % of control
[3]
  % binding to the CB1 receptor in relation to control: 91.3 % of control
[4]
  % binding to the CB1 receptor in relation to control: 90.2 % of control
[5]
  % binding to the CB1 receptor in relation to control: 92.7 % of control
[6]
  % binding to the CB1 receptor in relation to control: 73.5 % of control
